The results in this text go back to patent US8877718B2, “Antiinfective and antitumoral compounds isolated from tropical lianas” (Julius-Maximilians-Universität Würzburg, priority 2008, dated 2014).

The pEC50 is the EC50 on a negative log10 scale, so that one unit is a factor of ten. For orientation: melting point means the temperature of the solid-liquid transition.

In series [1] the test system is Leishmania donovani (MHOM-ET-67/L82 strain) amastigote forms. Nature of the series: Antiinfective effect against axenic amastigotes of Leishmania donovani (Alamar Blue fluorescence). Particulars: for inhibition at 0.8 µg/mL: c = 0.8 μg/ml, read-out: Inhibition of cell growth (%) at c = 0.8 μg/ml; for inhibition at 4.8 µg/mL: c = 4.8 μg/ml, read-out: Inhibition of cell growth (%) at c = 4.8 μg/ml; for activity against Leishmania donovani (in words): summary of Table 6. The class given is cell-based. How it is done:
Amastigote forms of Leishmania donovani (MHOM-ET-67/L82 strain) were grown in axenic culture at 37° C. and pH 5.4 in SM medium (I. Cunningham, J. Protozool. 1977, 24, 325-329) supplemented with 10% fetal bovine serum. For the assay, amastigote forms were seeded into a microtiter plate containing two concentrations of each substance to be tested. After 72 h the dye Alamar Blue (Resazurin) was added to each culture, and the plate was incubated for two more hours. Fluorescence at 536/588 nm was measured using a microtiter plate fluorometer, and the fluorescence signal of each culture treated with a substance was compared to the fluorescence signal of untreated control cultures. The antileishmanial drug miltefosine served as a positive control.
For orientation: Alamar Blue is a resazurin reagent that responds to reducing activity.

In series [2] the test system is SU-DHL-4 (aggressive B cell lymphoma) cell line. Nature of the series: Cell viability, annexin V-FITC/PI flow cytometry, SU-DHL-4. The class given is cell-based. Particulars: human tumor cell line SU-DH-4 L (aggressive B cell lymphoma), 72 h incubation. The source says:
(§1) Both cell lines of aggressive B cell lymphoma (DOHH-2, SU-DHL-4) and the multiple myeloma cell line RPMI8226 were obtained from the German Collection of Microorganisms and Cell Cultures (DSMZ) (ACC 47, ACC 495, and ACC 402, Braunschweig, Germany). The cultivation of the multiple myeloma cell line INA-6 had been previously described (R. Burger, A. Guenther, F. Bakker, M. Schmalzing, S. Bernand, W. Baum, B. Duerr, G. M. Hocke, H. Steininger, E. Gebhart, M. Gramatzki, Hematol. J. 2001, 2, 42-53). Normal mononuclear blood cells from the peripheral blood of two healthy donors were isolated by Ficoll-Hypaque density gradient centrifugation. To assess the percentage of apoptotic and viable cell fractions, a human annexin V-FITC/PI staining kit (Bender MedSystems, Vienna, Austria) was used. Cells (inoculation: 50000 cells mL^−1; incubation: 72 h) were washed in PBS, incubated for 10 min in 100 ml binding buffer (10 mM HEPES/NaOH, pH 7.4, 140 mM NaCl, 2.5 mM CaCl2) containing 2.5 ml annexin V-FITC mix and 1 mg/ml propidium iodide (PI), subsequently diluted with 300 ml binding buffer and analyzed by flow cytometry (FACSCalibur/CELLQuest; Becton Dickinson, Heidelberg, Germany). Early apoptosis is characterized by a positive annexin V-FITC staining. Cells in a late apoptotic stage lose their membrane integrity and additionally incorporate PI. […]
Background: Flow cytometry measures light scatter and fluorescence of single cells or particles in a stream.

For series [3], the system named is INA-6 (multiple myeloma) cell line. Nature of the series: Cell viability, annexin V-FITC/PI flow cytometry, INA-6. The class given is cell-based. Particulars: human tumor cell line INA-6 (multiple myeloma); 72 h incubation.
Description: as §1

Series [4] concerns normal peripheral mononuclear blood cells. Nature of the series: Cell viability, annexin V-FITC/PI flow cytometry, normal blood cells. It is filed as cell-based, human. The conditions noted are these: FIG. 9; for toxicity against normal peripheral mononuclear blood cells: cells of two healthy donors; for 50% response (EC50) in primary mononuclear blood cells: within the preferred therapeutic concentration range. From the text: Both cell lines of aggressive B cell lymphoma (DOHH-2, SU-DHL-4) and the multiple myeloma cell line RPMI8226 were obtained from the German Collection of Microorganisms and Cell Cultures (DSMZ) (ACC 47, ACC 495, and ACC 402, Braunschweig, Germany). The cultivation of the multiple myeloma cell line INA-6 had been previously described (R. Burger, A. Guenther, F. Bakker, M. Schmalzing, S. Bernand, W. Baum, B. Duerr, G. M. Hocke, H. Steininger, E. Gebhart, M. Gramatzki, Hematol. J. 2001, 2, 42-53). Normal mononuclear blood cells from the peripheral blood of two healthy donors were isolated by Ficoll-Hypaque density gradient centrifugation. To assess the percentage of apoptotic and viable cell fractions, a human annexin V-FITC/PI staining kit (Bender MedSystems, Vienna, Austria) was used. Cells (inoculation: 50000 cells mL^−1; incubation: 72 h) were washed in PBS, incubated for 10 min in 100 ml binding buffer (10 mM HEPES/NaOH, pH 7.4, 140 mM NaCl, 2.5 mM CaCl2) containing 2.5 ml annexin V-FITC mix and 1 mg/ml propidium iodide (PI), subsequently diluted with 300 ml binding buffer and analyzed by flow cytometry (FACSCalibur/CELLQuest; Becton Dickinson, Heidelberg, Germany). Early apoptosis is characterized by a positive annexin V-FITC staining. Cells in a late apoptotic stage lose their membrane integrity and additionally incorporate PI. Viable cells are negative for both, annexin V-FITC and PI. The optical density of the controls was equaled to 100%.

The test system of series [5] is DOHH-2 (aggressive B cell lymphoma) cell line. The series is described as follows: Cell viability, annexin V-FITC/PI flow cytometry, DOHH-2. The class given is cell-based. Particulars: human tumor cell line DOHH-1-2 (aggressive B cell lymphoma), 72 h incubation.
Description: as §1

The subject of series [6] is RPMI8226 (multiple myeloma) cell line. Nature of the series: Cell viability, annexin V-FITC/PI flow cytometry, RPMI8226. The class given is cell-based. The conditions noted are these: RPMI-8226; human tumor cell line RPMI8226 (multiple myeloma); 72 h incubation.
Description: as §1

Setting [7] is: Leishmania donovani, 72 h, axenic amastigotes.

The structures appear in SMILES notation. pEC50: −log10 of the molar value.

With `COc1cc(O)c2c(c1OC)C(=O)C(O)=C(C)C2=O` [Ancistroquinone D (1c), 3,8-dihydroxy-5,6-dimethoxy-2-methyl-1,4-naphthoquinone], in series [1] (setting [7]), the inhibition at 0.8 µg/mL was found to be 11.4% and the inhibition at 4.8 µg/mL was 31.7%.

For `CC1=C(O)C(=O)c2c(ccc(O)c2O)C1=O` [Dioncoquinone B (1b), 3,5,6-trihydroxy-2-methyl-1,4-naphthoquinone], the melting point was in the range of 216 to 217 °C. In addition, in series [1] (setting [7]), the inhibition at 0.8 µg/mL amounted to 79.2% and the inhibition at 4.8 µg/mL was found to be 87.6%. Further, the “activity against Leishmania donovani (in words)” value in series [1] is given as “excellent”. The same molecule had a pEC50 in series [2] of 5.12. In addition, the pEC50 in series [3] was 4.96. In addition, in series [4], the “toxicity against normal peripheral mononuclear blood cells” value was “non-toxic” and the “50% response (EC50) in primary mononuclear blood cells” value was “neither for Dioncoquinone A (1a) or for Dioncoquinone B (1b) a 50% response was achieved”. The molecule also had a pEC50 in series [5] of 5.03. The molecule further gave a pEC50 in series [6] of 4.74.

`CC1=C(O)C(=O)c2c(ccc(O[C@@H]3OC(CO)[C@@H](O)[C@H](O)[C@H]3O)c2O)C1=O` (stereo partly drawn) [Dioncoquinone A (1a), 3,5,6-trihydroxy-2-methyl-1,4-naphthoquinone-6-O-β-glucoside] displayed a melting point of 189 °C. Also, in series [1] (setting [7]), the inhibition at 0.8 µg/mL stood at 49.6% and the inhibition at 4.8 µg/mL was 80.3%. For the same molecule, the “activity against Leishmania donovani (in words)” value in series [1] was “excellent”. Also, the pEC50 in series [2] was 4.49. The molecule further had a pEC50 in series [3] of 4.54. Also, in series [4], the “toxicity against normal peripheral mononuclear blood cells” value is recorded as “non-toxic” and the “50% response (EC50) in primary mononuclear blood cells” value is reported as “neither for Dioncoquinone A (1a) or for Dioncoquinone B (1b) a 50% response was achieved”. The negative logarithm of the EC50 (pEC50) in series [5] is 4.43. In addition, the pEC50 in series [6] was 4.24.

Consider `COc1c2c(cc3c1C(=O)C(O)=C(C)C3=O)OCO2` [Ancistroquinone F (1e), 3-hydroxy-5-methoxy-2-methyl-6,7-methylenedioxy-1,4-naphthoquinone], for which, in series [1] (setting [7]), the inhibition at 0.8 µg/mL stood at 0.3% and the inhibition at 4.8 µg/mL is 28.6%.

For the molecule `CC1=C(O)C(=O)c2c(O)c3c(c(O)c2C1=O)OCO3` [Ancistroquinone E (1d), 3,5,8-trihydroxy-2-methyl-6,7-methylenedioxy-1,4-naphthoquinone], in series [1] (setting [7]), the inhibition at 0.8 µg/mL is 19.6% and the inhibition at 4.8 µg/mL was 30.5%.

Molecule `COc1ccc2c(c1OC)C(=O)C(O)=C(C)C2=O` [Ancistroquinone C (1f), 3-Hydroxy-5,6-dimethoxy-2-methyl-1,4-naphthoquinone] showed a melting point of 218 °C.

Regarding `CCCCCCCCCCCCCCCCOP(=O)([O-])OCC[N+](C)(C)C` [Miltefosine, miltefosine, reference compound], the inhibition at 0.22 µg/mL in series [1] (Leishmania donovani, c = 0.22 μg/ml (positive control), 72 h, axenic amastigotes, read-out: Inhibition of cell growth (%)) came out at 53%.
